Laboratory results published in patent US12221494B2, “Short synthetic peptides and their uses for treating retinal degenerative diseases and/or tissue injuries” (MacKay Memorial Hospital, priority 2019, dated 2025).
Ends that are not written are not given here.

What was measured:
[1] = test system: survivin mRNA; test: Real-time qPCR of survivin mRNA in C2C12 cells; assay type: cell-based, mouse; details: for survivin mRNA induction, in words / survivin mRNA induction compared to solvent control: C2C12 cells in low serum media, 20 μM peptide, 6 h
Protocol: Total RNA was extracted from cells using TRIzol (Invitrogen). Synthesis of cDNA was performed with 1 μg of total RNA at 50° C. for 50 min using oligo(dT) primers and reverse transcriptase (Superscript III; Invitrogen). Briefly, quantification of cDNA was performed in the LightCycler (Roche, Mannheim, Germany) using the DNA Master SYBR Green I kit (Roche) with the following cycling conditions: initial denaturation at 95° C. for 10 min, followed by 40 cycles at 95° C. for 10 s, 60° C. for 10 s, and 72° C. for 10 s and a 5-min terminal incubation at 72° C. The data were calculated with AACt. The expression was then normalized against the expression of glyceraldehyde-3-phosphate dehydrogenase (GAPDH). The PCR primers were mouse Survivin sense, 5′-[…]-3′ (SEQ ID NO: 27), anti-sense, 5′-[…]-3′ (SEQ ID NO: 28) (accession number: NM_001012273.1; PCR product: 136 bp); mouse GAPDH sense, 5′-[…]-3′ (SEQ ID NO: 29), anti-sense, 5′-[…]-3′ (SEQ ID NO: 30) (NM_001289726.1; 149 bp). For analysis rabbit inflammatory gene expression, The PCR primers were rabbit TNF-αsense, 5′-[…]-3′ (SEQ ID NO: 31), anti-sense, 5′-[…]-3′ (SEQ ID NO: 32) (accession number: NM 001082263.1); rabbit IL-1βsense, 5′-[…]-3′(SEQ ID NO: 33), anti-sense, 5′-[…]-3′ (SEQ ID NO: 34) (NM 001082201.1); rabbit GAPDH sense, 5′-[…]-3′ (SEQ ID NO: 35), anti-sense, 5′-[…]-3′ (SEQ ID NO: 36) (accession number:NM 001082253.1). The cycle threshold (Ct) values of the PCR product and a GAPDH (Glyceraldehyde 3-phosphate dehydrogenase) control mRNA were used to calculate relative quantities of mRNA.
Similar to the approach in Example 1.2.1, the expression level of survivin mRNA in C2C12 cells was used as an indicator for the function of the 6-mer variants in Tables 3 to 5. Briefly, C2C12 cells in low serum media were treated with 20 μM the 6-mer variants for 6 h. […] The results also confirmed that alanine substation at the glutamic acid (E) residues would severely impair the 6-mer activity.

[2] = test system: Sprague-Dawley rats, retinal ischemia/reperfusion (I/R) injury; test: TUNEL staining of I/R-injured rat retina (20 h); assay type: in vivo; details: for Number of TUNEL-positive cells in retina: subconjunctival injection 1 mM 4 h before I/R, 20 hours after I/R injury, Vehicle + I/R 27.2 ± 2.7; for I/R-induced retinal cell apoptosis (TUNEL staining), in words: subconjunctival injection prior to I/R, 20 h reperfusion
Protocol: Experimental procedures were approved by the Mackay Memorial Hospital Review Board (Taiwan, R.O.C.). All surgeries were performed under aseptic conditions. Adult 10-week-old male Sprague-Dawley rats (initial body weight=312±11 g) were anesthetized by an intraperitoneal injection of xylazine (10 mg/kg). Peptide was dissolved in 0.85% normal saline to 1 mM and delivered by the subconjunctival injection of 100 μL peptide through a 31-Gneedle with a micro-syringe before the induction of I/R. Normal saline was as a vehicle control. Rat I/R was performed after peptide or vehicle injection for 4 h. Pupils were dilated with 0.5% tropicamide and 0.5% phenylephrine. Body temperature was maintained at 37° C. using a heating blanket After dilation of the pupil, the anterior chamber of the right eye was cannulated with a 27-gauge needle connected to a physiological saline reservoir. The intraocular pressure (IOP) was raised to 110 mmHg by keeping the reservoir at 150 cm above the eye, and retinal ischemia was confirmed by observing whitening of the iris and the loss of the red reflex of the retina. After 90 min of ischemia, the cannulating needle was withdrawn and the IOP was returned to normal pressure, resulting in recovery of the blood supply from the retinal artery and reperfusion injury induced. The reperfusion was evident by the return of the red reflex. Corneal analgesia was achieved using 1 or 2 drops of 0.4% oxybuprocaine hydrochloride, and Ofloxacin ophthalmic gel (0.3%) was applied topically to the eye before and after the procedure. Only the right eye was used in all experiments. A sham procedure was performed at left eye served as an intra-animal control.
After I/R for 20 h, rats (n=6 in each group) were euthanized by an overdose of pentobarbital. Enucleated eyeballs were fixed in 4% PFA for 24 h at 4° C. Fixed retinal tissues were embedded in paraffin. To identify apoptosis of retinal cells, 5 μm sections thick cut through the optic disc, de-paraffinized, rehydrated, incubatedwith 20 μg/mL proteinase K for 10 min, and immunofluorescence staining of apoptotic cells was performed using a terminal deoxynucleotidyl transferase(TdT)-mediated dUTP nick-end labeling (TUNEL)-based kit (Roche Molecular Biochemicals, Indianapolis, IN) according to the manufacturer's instructions. Nuclei were located by counterstaining with Hoechst 33258 for 7 min Sections were observed under an epifluorescence microscope (Zeiss Axioplan 2 imaging; Zeiss, Oberkochen, Germany) equipped with a charge-coupled device (CCD) camera (Zeiss AxioCam HRm, Zeiss) (×400, 6 fields/sample), and quantification was performed using Axiovert software (Zeiss AxioVision Release 4.8.2, Zeiss). Three sections per eye were averaged and the mean of six eyes was recorded as the representative value for each group.
In this example, the neuroprotective effect of the 6-mer variant peptides on neural retina cells and retinal capillary system was investigated using a rat model of I/R injury described in the “Material and Methods” section. Briefly, 6-mer variant peptide (1 mM, 120 μl) was injected into the subconjunctival space of Sprague-Dawley rats for 4 h before the induction of I/R. Then, I/R injury was induced in rat retinas by increasing the intraocular pressure (IOP) in the eye to 110 mmHg for 90 min, followed by 20 h of reperfusion. Subsequently, the level of retinal cell apoptosis was evaluated using TUNEL staining. In addition, the retinal morphology was analyzed with H&E staining 14 days after the I/R injury. Results are summarized in FIGS. 6 to 10, and Tables 6 to 9.

Row | Compound | survivin mRNA induction, in words [1] | survivin mRNA induction compared to solvent control [1] | other results
1 | O=[N+]([O-])c1ccc2c(c1)S(=O)(=O)C=C2 [STAT3 inhibitor V, reference compound] | – | – | survivin mRNA expression induced by the 6-mer dS in cells pretreated with STAT3 inhibitor ([1]; C2C12 cells, 2.6-fold without inhibitor): 1.3 fold
2 | NH2-Ser-(D-Leu)-Gly-Ala-Glu-Gln-COOH (SLGAEQ; HELM PEPTIDE1{S.[dL].G.A.E.Q}$$$$V2.0; SMILES CC(C)C[C@@H](NC(=O)[C@@H](N)CO)C(=O)NCC(=O)N[C@@H](C)C(=O)N[C@@H](CCC(=O)O)C(=O)N[C@@H](CCC(N)=O)C(=O)O) [6-mer dL] | hamper the survivin gene induction activity significantly | – | –
3 | NH2-Ser-Ala-Gly-Ala-Glu-Gln-COOH (SAGAEQ; not fully specified (N-terminus, C-terminus); printed as NH2-Ser-Ala-Gly-Ala-Glu-Gln-COOH) [6-mer La] | – | 1.5 fold | –
4 | NH2-Ser-Ile-Gly-Ala-Glu-Gln-COOH (SIGAEQ; not fully specified (N-terminus, C-terminus); printed as NH2-Ser-Ile-Gly-Ala-Glu-Gln-COOH) [6-mer Li] | – | 2.1 fold | Number of TUNEL-positive cells in retina [2]: 9.8 ± 1.4 /200 μm; I/R-induced retinal cell apoptosis (TUNEL staining), in words [2]: reduced the retinal cell apoptosis induced by I/R
5 | NH2-Ser-Leu-Ala-Ala-Glu-Gln-COOH (SLAAEQ; not fully specified (N-terminus, C-terminus); printed as NH2-Ser-Leu-Ala-Ala-Glu-Gln-COOH) [6-mer Ga] | – | 1.6 fold | –
6 | NH2-Ser-Leu-Asn-Ala-Glu-Gln-COOH (SLNAEQ; not fully specified (N-terminus, C-terminus); printed as NH2-Ser-Leu-Asn-Ala-Glu-Gln-COOH) [6-mer Gn] | – | 1.5 fold | –
7 | NH2-Ser-Leu-Gly-Ala-(D-Glu)-Gln-COOH (SLGAEQ; HELM PEPTIDE1{S.L.G.A.[dE].Q}$$$$V2.0; SMILES CC(C)C[C@H](NC(=O)[C@@H](N)CO)C(=O)NCC(=O)N[C@@H](C)C(=O)N[C@H](CCC(=O)O)C(=O)N[C@@H](CCC(N)=O)C(=O)O) [6-mer dE] | moderate induction on survivin mRNA level | – | –
8 | NH2-Ser-Leu-Gly-Ala-Asp-Gln-COOH (SLGADQ; not fully specified (N-terminus, C-terminus); printed as NH2-Ser-Leu-Gly-Ala-Asp-Gln-COOH) [6-mer Ed] | severely impaired the survivin mRNA induction | – | –
9 | NH2-Ser-Leu-Gly-Ala-Glu-(D-Gln)-COOH (SLGAEQ; HELM PEPTIDE1{S.L.G.A.E.[dQ]}$$$$V2.0; SMILES CC(C)C[C@H](NC(=O)[C@@H](N)CO)C(=O)NCC(=O)N[C@@H](C)C(=O)N[C@@H](CCC(=O)O)C(=O)N[C@H](CCC(N)=O)C(=O)O) [6-mer dQ] | hamper the survivin gene induction activity significantly | – | –
10 | NH2-Ser-Leu-Gly-Ala-Glu-Ala-COOH (SLGAEA; not fully specified (N-terminus, C-terminus); printed as NH2-Ser-Leu-Gly-Ala-Glu-Ala-COOH) [6-mer Qa] | – | 1.6 fold | –
11 | NH2-Ser-Leu-Gly-Ala-Glu-Asn-COOH (SLGAEN; not fully specified (N-terminus, C-terminus); printed as NH2-Ser-Leu-Gly-Ala-Glu-Asn-COOH) [6-mer Qn] | – | 2.1 fold | Number of TUNEL-positive cells in retina [2]: 12.5 ± 0.89 /200 μm; I/R-induced retinal cell apoptosis (TUNEL staining), in words [2]: reduced the retinal cell apoptosis induced by I/R
12 | NH2-Ser-Leu-Gly-Glu-Glu-Gln-COOH (SLGEEQ; not fully specified (N-terminus, C-terminus); printed as NH2-Ser-Leu-Gly-Glu-Glu-Gln-COOH) [6-mer Ae] | – | 1.5 fold | –
13 | NH2-Ser-Leu-Gly-Gly-Glu-Gln-COOH (SLGGEQ; not fully specified (N-terminus, C-terminus); printed as NH2-Ser-Leu-Gly-Gly-Glu-Gln-COOH) [6-mer Ag] | – | 1.5 fold | –
14 | NH2-Ser-Leu-Gly-Ile-Glu-Gln-COOH (SLGIEQ; not fully specified (N-terminus, C-terminus); printed as NH2-Ser-Leu-Gly-Ile-Glu-Gln-COOH) [6-mer Ai] | severely impaired the survivin mRNA induction | – | –
15 | NH2-Ser-Leu-Gly-Ser-Glu-Gln-COOH (SLGSEQ; not fully specified (N-terminus, C-terminus); printed as NH2-Ser-Leu-Gly-Ser-Glu-Gln-COOH) [6-mer As] | severely impaired the survivin mRNA induction | – | –
